Experimental data published in the kinase profiling compilation of Christmann-Franck et al. (2016).

What was measured:
Test in all cases: radiometric filter-binding kinase assay, Kinase HotSpot
Conditions in all cases: compound 0.5 µM; ATP 10 µM
ALK (human) = ALK (human) (UniProt Q9UM73)
CAMK1 (human) = CAMK1 (human) (UniProt Q14012)
CDK5 CDK5R1 p25 (human) = CDK5 CDK5R1 p25 (human) (UniProt Q00535+Q15078)
CLK2 (human) = CLK2 (human) (UniProt P49760)
CLK3 (human) = CLK3 (human) (UniProt P49761)
CLK4 (human) = CLK4 (human) (UniProt Q9HAZ1)
Chain of CLK4 (human) (Q9HAZ1 whole entry, looked up): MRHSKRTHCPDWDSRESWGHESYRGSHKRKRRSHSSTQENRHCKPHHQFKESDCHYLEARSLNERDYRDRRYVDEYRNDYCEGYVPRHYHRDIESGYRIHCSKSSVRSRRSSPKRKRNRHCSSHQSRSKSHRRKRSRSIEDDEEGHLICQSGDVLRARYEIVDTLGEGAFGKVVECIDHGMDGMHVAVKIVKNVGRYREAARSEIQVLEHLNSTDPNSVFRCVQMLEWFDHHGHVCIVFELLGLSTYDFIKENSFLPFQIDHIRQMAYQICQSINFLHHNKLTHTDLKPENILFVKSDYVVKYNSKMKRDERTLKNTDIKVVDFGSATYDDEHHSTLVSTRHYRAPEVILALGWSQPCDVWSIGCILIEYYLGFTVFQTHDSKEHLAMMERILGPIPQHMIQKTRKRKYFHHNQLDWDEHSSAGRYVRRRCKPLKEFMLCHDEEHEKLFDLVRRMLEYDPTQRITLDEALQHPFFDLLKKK

CSF1R (human) = CSF1R (human) (UniProt P07333)
CSNK1G3 (human) = CSNK1G3 (human) (UniProt Q9Y6M4)
DSTYK (human) = DSTYK (human) (UniProt Q6XUX3)
Chain of DSTYK (human) (Q6XUX3 whole entry, looked up): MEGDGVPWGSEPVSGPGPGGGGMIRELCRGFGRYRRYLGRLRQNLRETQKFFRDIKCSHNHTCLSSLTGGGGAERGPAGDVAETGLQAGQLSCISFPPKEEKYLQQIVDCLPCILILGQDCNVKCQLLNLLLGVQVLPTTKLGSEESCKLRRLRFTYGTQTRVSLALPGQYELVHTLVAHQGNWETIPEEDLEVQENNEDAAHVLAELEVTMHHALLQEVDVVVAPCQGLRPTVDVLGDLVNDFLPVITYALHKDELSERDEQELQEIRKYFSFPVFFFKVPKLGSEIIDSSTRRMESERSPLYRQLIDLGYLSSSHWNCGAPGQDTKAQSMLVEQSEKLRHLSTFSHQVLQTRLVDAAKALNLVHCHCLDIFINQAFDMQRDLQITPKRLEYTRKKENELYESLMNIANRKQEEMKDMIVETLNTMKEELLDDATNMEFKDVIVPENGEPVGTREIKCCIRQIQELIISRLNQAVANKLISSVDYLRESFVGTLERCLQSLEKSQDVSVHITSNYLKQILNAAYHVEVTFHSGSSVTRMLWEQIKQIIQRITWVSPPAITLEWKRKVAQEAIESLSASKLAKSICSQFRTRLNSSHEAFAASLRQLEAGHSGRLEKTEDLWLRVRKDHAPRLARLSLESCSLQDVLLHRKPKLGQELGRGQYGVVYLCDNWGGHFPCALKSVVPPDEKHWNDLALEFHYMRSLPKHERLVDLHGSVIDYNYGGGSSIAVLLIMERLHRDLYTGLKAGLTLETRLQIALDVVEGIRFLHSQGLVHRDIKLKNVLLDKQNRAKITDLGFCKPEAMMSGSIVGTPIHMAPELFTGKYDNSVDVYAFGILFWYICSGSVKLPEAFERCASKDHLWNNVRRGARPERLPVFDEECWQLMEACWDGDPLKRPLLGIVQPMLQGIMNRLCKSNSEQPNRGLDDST

DYRK4 (human) = DYRK4 (human) (UniProt Q9NR20)
EPHB2 (human) = EPHB2 (human) (UniProt P29323)
ERBB4 (human) = ERBB4 (human) (UniProt Q15303)
FER (human) = FER (human) (UniProt P16591)
HIPK2 (human) = HIPK2 (human) (UniProt Q9H2X6)
IRAK4 (human) = IRAK4 (human) (UniProt Q9NWZ3)
Chain of IRAK4 (human) (Q9NWZ3 whole entry, looked up): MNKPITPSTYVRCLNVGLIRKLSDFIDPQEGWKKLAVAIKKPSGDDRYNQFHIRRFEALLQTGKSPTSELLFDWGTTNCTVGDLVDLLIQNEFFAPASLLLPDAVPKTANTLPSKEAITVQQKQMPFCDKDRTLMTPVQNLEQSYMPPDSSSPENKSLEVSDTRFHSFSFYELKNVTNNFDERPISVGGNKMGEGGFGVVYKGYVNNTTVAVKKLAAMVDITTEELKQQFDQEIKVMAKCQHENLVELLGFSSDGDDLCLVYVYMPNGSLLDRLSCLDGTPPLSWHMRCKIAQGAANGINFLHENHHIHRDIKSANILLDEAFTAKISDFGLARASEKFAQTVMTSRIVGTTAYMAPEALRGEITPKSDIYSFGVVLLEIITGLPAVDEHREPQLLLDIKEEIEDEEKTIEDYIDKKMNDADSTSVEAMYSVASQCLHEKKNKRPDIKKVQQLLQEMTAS

JAK3 JH1 JH2 (human) = JAK3 JH1 JH2 (human) (UniProt P52333)
KDR (human) = KDR (human) (UniProt P35968)
LTK (human) = LTK (human) (UniProt P29376)
MAP2K2 (human) = MAP2K2 (human) (UniProt P36507)
MAP3K14 (human) = MAP3K14 (human) (UniProt Q99558)
MAP3K8 (human) = MAP3K8 (human) (UniProt P41279)
MAPK10 (human) = MAPK10 (human) (UniProt P53779)
Chain of MAPK10 (human) (P53779 whole entry, looked up): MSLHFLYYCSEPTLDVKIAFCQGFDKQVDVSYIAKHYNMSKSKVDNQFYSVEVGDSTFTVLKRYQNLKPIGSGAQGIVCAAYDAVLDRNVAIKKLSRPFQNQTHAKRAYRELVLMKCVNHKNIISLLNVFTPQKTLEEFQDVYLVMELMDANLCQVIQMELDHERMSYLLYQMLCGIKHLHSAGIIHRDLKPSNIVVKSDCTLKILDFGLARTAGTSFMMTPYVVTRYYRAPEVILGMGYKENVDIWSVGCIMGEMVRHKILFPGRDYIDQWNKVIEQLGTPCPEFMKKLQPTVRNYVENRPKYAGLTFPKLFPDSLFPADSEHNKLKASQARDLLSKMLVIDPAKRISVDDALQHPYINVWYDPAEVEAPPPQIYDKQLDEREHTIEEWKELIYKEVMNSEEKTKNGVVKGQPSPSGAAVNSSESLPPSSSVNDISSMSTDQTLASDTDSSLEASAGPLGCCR

MAPK9 (human) = MAPK9 (human) (UniProt P45984)
MARK4 (human) = MARK4 (human) (UniProt Q96L34)
MST1R (human) = MST1R (human) (UniProt Q04912)
MST4 (human) = MST4 (human) (UniProt Q9P289)
NEK7 (human) = NEK7 (human) (UniProt Q8TDX7)
NUAK1 (human) = NUAK1 (human) (UniProt O60285)
PAK4 (human) = PAK4 (human) (UniProt O96013)
PAK6 (human) = PAK6 (human) (UniProt Q9NQU5)
PHKG2 (human) = PHKG2 (human) (UniProt P15735)
PNCK (human) = PNCK (human) (UniProt Q6P2M8)
PRKX (human) = PRKX (human) (UniProt P51817)
RAF1 (human) = RAF1 (human) (UniProt P04049)
Chain of RAF1 (human) (P04049 whole entry, looked up): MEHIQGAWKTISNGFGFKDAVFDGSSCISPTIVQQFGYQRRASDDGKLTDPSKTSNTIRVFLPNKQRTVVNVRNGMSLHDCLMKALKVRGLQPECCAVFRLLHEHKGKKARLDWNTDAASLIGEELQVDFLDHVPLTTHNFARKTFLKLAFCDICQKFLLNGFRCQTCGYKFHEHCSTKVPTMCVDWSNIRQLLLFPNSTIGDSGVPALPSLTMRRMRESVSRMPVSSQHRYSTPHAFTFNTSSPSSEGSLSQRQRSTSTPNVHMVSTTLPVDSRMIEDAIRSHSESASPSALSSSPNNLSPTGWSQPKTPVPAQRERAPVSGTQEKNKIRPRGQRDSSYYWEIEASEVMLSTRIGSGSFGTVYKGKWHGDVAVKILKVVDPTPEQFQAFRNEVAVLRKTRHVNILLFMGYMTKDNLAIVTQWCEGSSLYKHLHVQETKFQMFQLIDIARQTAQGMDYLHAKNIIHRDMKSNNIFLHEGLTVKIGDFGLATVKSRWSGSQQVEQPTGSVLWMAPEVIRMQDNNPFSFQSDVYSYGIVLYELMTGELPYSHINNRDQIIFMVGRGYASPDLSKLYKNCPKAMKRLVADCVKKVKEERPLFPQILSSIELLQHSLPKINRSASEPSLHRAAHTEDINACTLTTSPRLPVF

ROCK1 (human) = ROCK1 (human) (UniProt Q13464)
RPS6KB2 (human) = RPS6KB2 (human) (UniProt Q9UBS0)
Chain of RPS6KB2 (human) (Q9UBS0 whole entry, looked up): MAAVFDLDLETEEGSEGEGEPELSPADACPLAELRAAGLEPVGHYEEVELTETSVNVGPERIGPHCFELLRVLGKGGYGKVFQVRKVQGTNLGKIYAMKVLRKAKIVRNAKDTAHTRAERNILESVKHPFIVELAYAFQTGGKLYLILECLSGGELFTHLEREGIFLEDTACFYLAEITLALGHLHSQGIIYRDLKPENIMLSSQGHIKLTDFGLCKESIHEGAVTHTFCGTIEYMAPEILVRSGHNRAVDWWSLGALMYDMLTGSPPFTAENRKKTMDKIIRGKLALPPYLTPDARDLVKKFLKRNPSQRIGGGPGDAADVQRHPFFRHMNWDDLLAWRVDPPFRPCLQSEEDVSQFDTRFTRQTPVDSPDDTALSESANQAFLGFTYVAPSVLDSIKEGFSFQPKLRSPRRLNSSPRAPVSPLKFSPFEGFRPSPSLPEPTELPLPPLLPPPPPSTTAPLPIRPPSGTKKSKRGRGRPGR

STK11 (human) = STK11 (human) (UniProt Q15831)
Chain of STK11 (human) (Q15831 whole entry, looked up): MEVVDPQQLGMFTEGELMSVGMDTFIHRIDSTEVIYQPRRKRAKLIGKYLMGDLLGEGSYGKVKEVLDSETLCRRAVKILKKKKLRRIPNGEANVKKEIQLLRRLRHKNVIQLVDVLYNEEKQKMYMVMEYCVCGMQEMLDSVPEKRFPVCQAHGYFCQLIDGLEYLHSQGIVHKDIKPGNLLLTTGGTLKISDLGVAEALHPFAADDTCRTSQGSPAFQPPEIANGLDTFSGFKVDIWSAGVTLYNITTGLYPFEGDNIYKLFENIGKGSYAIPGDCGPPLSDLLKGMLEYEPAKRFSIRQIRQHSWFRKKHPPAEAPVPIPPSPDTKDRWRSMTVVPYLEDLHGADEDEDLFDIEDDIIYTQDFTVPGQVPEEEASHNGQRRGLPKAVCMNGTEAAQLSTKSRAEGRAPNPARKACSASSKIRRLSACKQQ

TAOK2 (human) = TAOK2 (human) (UniProt Q9UL54)
TEK (human) = TEK (human) (UniProt Q02763)
TGFBR1 (human) = TGFBR1 (human) (UniProt P36897)
ULK2 (human) = ULK2 (human) (UniProt Q8IYT8)
ZAP70 (human) = ZAP70 (human) (UniProt P43403)

Chain of CAMK1 (human) (Q14012 whole entry, looked up): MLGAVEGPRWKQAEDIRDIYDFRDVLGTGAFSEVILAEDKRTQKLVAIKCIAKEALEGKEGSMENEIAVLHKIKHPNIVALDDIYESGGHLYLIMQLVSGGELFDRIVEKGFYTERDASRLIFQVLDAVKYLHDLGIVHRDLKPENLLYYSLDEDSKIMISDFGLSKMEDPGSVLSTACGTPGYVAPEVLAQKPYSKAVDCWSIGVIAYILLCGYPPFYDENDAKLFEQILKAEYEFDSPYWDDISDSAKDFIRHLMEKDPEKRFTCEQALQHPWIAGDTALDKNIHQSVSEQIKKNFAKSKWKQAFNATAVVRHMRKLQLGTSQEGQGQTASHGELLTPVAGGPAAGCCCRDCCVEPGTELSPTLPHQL
Chain of CDK5 CDK5R1 p25 (human) (Q00535 whole entry, looked up): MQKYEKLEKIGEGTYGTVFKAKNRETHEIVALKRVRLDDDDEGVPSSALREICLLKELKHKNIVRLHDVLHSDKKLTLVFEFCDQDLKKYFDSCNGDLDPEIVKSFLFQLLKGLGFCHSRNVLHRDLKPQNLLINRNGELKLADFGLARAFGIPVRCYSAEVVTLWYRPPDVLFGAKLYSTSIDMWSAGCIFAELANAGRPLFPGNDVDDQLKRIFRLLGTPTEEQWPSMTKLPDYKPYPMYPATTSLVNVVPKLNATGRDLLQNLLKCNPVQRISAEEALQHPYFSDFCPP
Chain of CDK5 CDK5R1 p25 (human) (Q15078 whole entry, looked up): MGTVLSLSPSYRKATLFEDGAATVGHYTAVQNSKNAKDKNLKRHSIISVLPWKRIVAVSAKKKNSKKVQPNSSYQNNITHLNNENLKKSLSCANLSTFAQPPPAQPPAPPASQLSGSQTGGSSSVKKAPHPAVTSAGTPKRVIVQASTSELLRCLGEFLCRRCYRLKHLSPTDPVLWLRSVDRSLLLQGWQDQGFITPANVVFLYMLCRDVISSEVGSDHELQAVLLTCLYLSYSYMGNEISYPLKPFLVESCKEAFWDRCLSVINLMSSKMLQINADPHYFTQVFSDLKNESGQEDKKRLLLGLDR

With `CC(C)[C@H](CO)Nc1nc(Nc2cc(N)cc(Cl)c2)c2ncn(C(C)C)c2n1` the residual activity (ALK (human)) was 79.6%, the residual activity (CAMK1 (human)) was 95.3% and the residual activity (CDK5 CDK5R1 p25 (human)) was 3.31%. For the same compound, the residual activity (CLK2 (human)) was 17.7%, the residual activity (CLK3 (human)) was 85.5% and the residual activity (CLK4 (human)) was 16.5%. The residual activity (CSF1R (human)) was 71.1%, the residual activity (CSNK1G3 (human)) was 13.4% and the residual activity (DSTYK (human)) was 93.1%. For the same compound, the residual activity (DYRK4 (human)) was 91.6%, the residual activity (EPHB2 (human)) was 73.6% and the residual activity (ERBB4 (human)) was 131%. It also gave a residual activity (FER (human)) of 54.9%, a residual activity (HIPK2 (human)) of 94.3% and a residual activity (IRAK4 (human)) of 86.8%. The residual activity (JAK3 JH1 JH2 (human)) was 108%, the residual activity (KDR (human)) was 101% and the residual activity (LTK (human)) was 103%. For the same compound, the residual activity (MAP2K2 (human)) was 87.5%, the residual activity (MAP3K14 (human)) was 100% and the residual activity (MAP3K8 (human)) was 109%. It also gave a residual activity (MAPK10 (human)) of 94.6%, a residual activity (MAPK9 (human)) of 99.8% and a residual activity (MARK4 (human)) of 71.2%. For the same compound, the residual activity (MST1R (human)) was 122%, the residual activity (MST4 (human)) was 67.8% and the residual activity (NEK7 (human)) was 89%. It also gave a residual activity (NUAK1 (human)) of 61.5%, a residual activity (PAK4 (human)) of 102% and a residual activity (PAK6 (human)) of 57.3%. The residual activity (PHKG2 (human)) was 105%, the residual activity (PNCK (human)) was 132% and the residual activity (PRKX (human)) was 101%. For the same compound, the residual activity (RAF1 (human)) was 113%, the residual activity (ROCK1 (human)) was 90% and the residual activity (RPS6KB2 (human)) was 98.2%. For the same compound, the residual activity (STK11 (human)) was 60.3%, the residual activity (TAOK2 (human)) was 82.2% and the residual activity (TEK (human)) was 92.5%. The residual activity (TGFBR1 (human)) was 103%, the residual activity (ULK2 (human)) was 74.9% and the residual activity (ZAP70 (human)) was 102%.
`O=C(O)/C=C/c1cc(Br)c(Br)c(Br)c1Br` was tested, and the residual activity (ALK (human)) was 98.6%, the residual activity (CAMK1 (human)) was 105% and the residual activity (CDK5 CDK5R1 p25 (human)) was 84.1%. For the same compound, the residual activity (CLK2 (human)) was 85%, the residual activity (CLK3 (human)) was 96.1% and the residual activity (CLK4 (human)) was 45.4%. The residual activity (CSF1R (human)) was 99%, the residual activity (CSNK1G3 (human)) was 92.1% and the residual activity (DSTYK (human)) was 98.2%. It also gave a residual activity (DYRK4 (human)) of 96.4%, a residual activity (EPHB2 (human)) of 103% and a residual activity (ERBB4 (human)) of 104%. It also gave a residual activity (FER (human)) of 96.6%, a residual activity (HIPK2 (human)) of 82.2% and a residual activity (IRAK4 (human)) of 86.6%. For the same compound, the residual activity (JAK3 JH1 JH2 (human)) was 71.8%, the residual activity (KDR (human)) was 90.1% and the residual activity (LTK (human)) was 94.5%. The residual activity (MAP2K2 (human)) was 103%, the residual activity (MAP3K14 (human)) was 100% and the residual activity (MAP3K8 (human)) was 83%. The residual activity (MAPK10 (human)) was 96.3%, the residual activity (MAPK9 (human)) was 96.4% and the residual activity (MARK4 (human)) was 93.1%. It also gave a residual activity (MST1R (human)) of 87.1%, a residual activity (MST4 (human)) of 88.7% and a residual activity (NEK7 (human)) of 98%. It also gave a residual activity (NUAK1 (human)) of 87.6%, a residual activity (PAK4 (human)) of 104% and a residual activity (PAK6 (human)) of 110%. It also gave a residual activity (PHKG2 (human)) of 98.9%, a residual activity (PNCK (human)) of 95.1% and a residual activity (PRKX (human)) of 96%. For the same compound, the residual activity (RAF1 (human)) was 91.3%, the residual activity (ROCK1 (human)) was 97.6% and the residual activity (RPS6KB2 (human)) was 93.8%. It also gave a residual activity (STK11 (human)) of 42.8%, a residual activity (TAOK2 (human)) of 88.9% and a residual activity (TEK (human)) of 94.4%. It also gave a residual activity (TGFBR1 (human)) of 90.8%, a residual activity (ULK2 (human)) of 80.3% and a residual activity (ZAP70 (human)) of 98.5%.
With `O=C1Nc2ccccc2/C1=C1/Nc2ccccc2/C1=N\OCCC(O)CO` (stereo unspecified) the residual activity (ALK (human)) was 38.1%, the residual activity (CAMK1 (human)) was 76% and the residual activity (CDK5 CDK5R1 p25 (human)) was 16.4%. It also gave a residual activity (CLK2 (human)) of 92%, a residual activity (CLK3 (human)) of 16.1% and a residual activity (CLK4 (human)) of 6.19%. The residual activity (CSF1R (human)) was 21.1%, the residual activity (CSNK1G3 (human)) was 90.7% and the residual activity (DSTYK (human)) was 104%. It also gave a residual activity (DYRK4 (human)) of 100%, a residual activity (EPHB2 (human)) of 75% and a residual activity (ERBB4 (human)) of 97.5%. It also gave a residual activity (FER (human)) of 28.8%, a residual activity (HIPK2 (human)) of 97.6% and a residual activity (IRAK4 (human)) of 60.3%. It also gave a residual activity (JAK3 JH1 JH2 (human)) of 16.9%, a residual activity (KDR (human)) of 56.4% and a residual activity (LTK (human)) of 34.7%. It also gave a residual activity (MAP2K2 (human)) of 86.5%, a residual activity (MAP3K14 (human)) of 89% and a residual activity (MAP3K8 (human)) of 123%. It also gave a residual activity (MAPK10 (human)) of 103%, a residual activity (MAPK9 (human)) of 44.3% and a residual activity (MARK4 (human)) of 43.5%. The residual activity (MST1R (human)) was 101%, the residual activity (MST4 (human)) was 73.1% and the residual activity (NEK7 (human)) was 98.9%. It also gave a residual activity (NUAK1 (human)) of 2.81%, a residual activity (PAK4 (human)) of 84.5% and a residual activity (PAK6 (human)) of 93.5%. The residual activity (PHKG2 (human)) was 34.9%, the residual activity (PNCK (human)) was 101% and the residual activity (PRKX (human)) was 84.2%. For the same compound, the residual activity (RAF1 (human)) was 100%, the residual activity (ROCK1 (human)) was 101% and the residual activity (RPS6KB2 (human)) was 106%. For the same compound, the residual activity (STK11 (human)) was 5.77%, the residual activity (TAOK2 (human)) was 83.4% and the residual activity (TEK (human)) was 101%. For the same compound, the residual activity (TGFBR1 (human)) was 102%, the residual activity (ULK2 (human)) was 102% and the residual activity (ZAP70 (human)) was 97.8%.
